Patent publication US20070179060A1, “6-(Poly-substituted aryl)-4-aminopicolinates and their use as herbicides” (priority 2006, published 2007)
Values belong to the compound of their own block, whether it stands above or below them.

Columns and labels:
[1] = tested on: velvetleaf (Abutilon theophrasti); assay: Postemergence herbicidal activity; assay type: in vivo; conditions: Abutilon theophrasti, post-emergence, 336 h, post-emergent, 140 g ai/ha, after 14 days; read-out: % Control ABUTH
How it was run: (§1)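 Compounds were applied postemergence by track sprayer delivering 187 L/ha, using a mixed organic/aqueous carrier containing crop oil concentrate and surfactant; solvent-blank sprays served as controls. Test plants were at the first to second true leaf stage after 7-21 days' greenhouse growth, were sub-irrigated after treatment, and were evaluated by probit analysis.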

[2] = tested on: lambsquarter (Chenopodium album); assay: Postemergence herbicidal activity; assay type: in vivo; conditions: Chenopodium album, post-emergence, 336 h, post-emergent, 140 g ai/ha, after 14 days; read-out: % Control CHEAL
How it was run: as §1

[3] = tested on: redroot pigweed (Amaranthus retroflexus); assay: Postemergence herbicidal activity; assay type: in vivo; conditions: Amaranthus retroflexus, post-emergence, 336 h, post-emergent, 140 g ai/ha, after 14 days; read-out: % Control AMARE
How it was run: as §1

[4] = tested on: velvetleaf (Abutilon theophrasti); assay: Preemergence herbicidal activity; assay type: in vivo; conditions: Abutilon theophrasti, pre-emergence, 480 h, pre-emergent, after 20-22 days, read-out: % Control ABUTH; for pest or weed control at 140 g/ha: 140 g ai/ha
From the text: (§2) Seeds of the desired test plant species were planted in a soil matrix prepared by mixing a loam soil (43 percent silt, 19 percent clay, and 38 percent sand, with a pH of about 8.1 and an organic matter content of about 1.5 percent) and sand in a 70 to 30 ratio. The soil matrix was contained in plastic pots with a surface area of 113 square centimeters. When required to ensure good germination and healthy plants, a fungicide treatment and/or other chemical or physical treatment was applied. […] Compound requirements are based upon a 12 mL application volume at a rate of 187 L/ha. Formulated compounds were applied to the plant material with an overhead Mandel track sprayer equipped with a […] nozzles calibrated to deliver 187 L/ha over an application area of 0.503 square meters at a spray height of 18 inches (43 cm) above the soil surface. Control plants were sprayed in the same manner with the solvent blank. The treated pots and control pots were placed in a greenhouse maintained with an approximate 15 hour photoperiod and temperatures of about 23-29° C. during the day and 22-28° C. during the night. Nutrients and water were added on a regular basis and supplemental lighting was provided with overhead metal halide 1000-watt lamps as necessary. The water was added by top-irrigation.

[5] = tested on: lambsquarter (Chenopodium album); assay: Preemergence herbicidal activity; assay type: in vivo; conditions: Chenopodium album, pre-emergence, 480 h, pre-emergent, after 20-22 days, read-out: % Control CHEAL; for pest or weed control at 140 g/ha: 140 g ai/ha
From the text: as §2

[6] = tested on: redroot pigweed (Amaranthus retroflexus); assay: Preemergence herbicidal activity; assay type: in vivo; conditions: Amaranthus retroflexus, pre-emergence, 480 h, pre-emergent, after 20-22 days, read-out: % Control AMARE; for pest or weed control at 140 g/ha: 140 g ai/ha
From the text: as §2

Structure (SMILES): COCc1c(Cl)ccc(-c2cc(N)c(Cl)c(C(=O)OC)n2)c1F [Compound 3, 4-Amino-3-chloro-6-(4-chloro-2-fluoro-3-methoxymethylphenyl)pyridine-2-carboxylic acid methyl ester]
melting point: 116 to 117 °C
pest or weed control at 140 g/ha [1]: 100%
pest or weed control at 140 g/ha [2]: 80%
pest or weed control at 140 g/ha [3]: 100%
pest or weed control at 140 g/ha [4]: 98%
pest or weed control at 140 g/ha [5]: 95%
pest or weed control at 140 g/ha [6]: 100%

Structure (SMILES): COC(=O)c1nc(-c2ccc(Cl)c(OCC(F)F)c2Cl)cc(N)c1Cl [Compound 10, 4-Amino-3-chloro-6-[2,4-dichloro-3-(2,2-difluoroethoxy)phenyl]pyridine-2-carboxylic acid methyl ester]
melting point: 113 to 115 °C
pest or weed control at 140 g/ha [1]: 90%
pest or weed control at 140 g/ha [2]: 100%
pest or weed control at 140 g/ha [3]: 100%
pest or weed control at 280 g/ha ([4]; 280 g ai/ha): 40%
pest or weed control at 280 g/ha ([5]; 280 g ai/ha): 80%
pest or weed control at 280 g/ha ([6]; 280 g ai/ha): 50%

Structure (SMILES): COC(=O)c1nc(-c2ccc3c(c2F)OCO3)c(F)c(N)c1Cl [Compound 12, 4-Amino-3-chloro-5-fluoro-6-(2-fluoro-3,4-methylenedioxyphenyl)pyridine-2-carboxylic acid methyl ester]
melting point: 151 to 152 °C
pest or weed control at 140 g/ha [1]: 100%
pest or weed control at 140 g/ha [2]: 100%
pest or weed control at 140 g/ha [3]: 100%
pest or weed control at 140 g/ha [4]: 100%
pest or weed control at 140 g/ha [5]: 100%
pest or weed control at 140 g/ha [6]: 100%

Structure (SMILES): COC(=O)c1nc(-c2cc(OC)c(Cl)cc2F)c(F)c(N)c1Cl [Compound 15, 4-Amino-3-chloro-5-fluoro-6-(4-chloro-2-fluoro-5-methoxyphenyl)pyridine-2-carboxylic acid methyl ester]
melting point: 168 to 169 °C
pest or weed control at 140 g/ha [1]: 100%
pest or weed control at 140 g/ha [2]: 100%
pest or weed control at 140 g/ha [3]: 100%
pest or weed control at 140 g/ha [4]: 60%
pest or weed control at 140 g/ha [5]: 100%
pest or weed control at 140 g/ha [6]: 100%

Now from value to compound, other results behind:

melting point: 116 to 118 °C
Structure (SMILES): COC(=O)c1nc(-c2ccc(Cl)c(C)c2F)cc(N)c1Cl [Compound 49, 4-Amino-3-chloro-6-(4-chloro-2-fluoro-3-methylphenyl)pyridine-2-carboxylic acid methyl ester]
pest or weed control at 140 g/ha [1]: 100%
pest or weed control at 140 g/ha [2]: 90%
pest or weed control at 140 g/ha [3]: 80%
pest or weed control at 140 g/ha [4]: 100%
pest or weed control at 140 g/ha [5]: 99%
pest or weed control at 140 g/ha [6]: 100%

melting point: 120 to 122 °C
Structure (SMILES): CCc1c(Cl)ccc(-c2cc(N)c(Cl)c(C(=O)OC)n2)c1F [Compound 64, 4-Amino-3-chloro-6-(4-chloro-3-ethyl-2-fluorophenyl)pyridine-2-carboxylic acid, methyl ester]
pest or weed control at 140 g/ha [1]: 95%
pest or weed control at 140 g/ha [2]: 100%
pest or weed control at 140 g/ha [3]: 100%
pest or weed control at 140 g/ha [4]: 80%
pest or weed control at 140 g/ha [5]: 100%
pest or weed control at 140 g/ha [6]: 100%

melting point: 169 to 170 °C (dec.)
Structure (SMILES): COCCOc1c(Cl)ccc(-c2cc(N)c(Cl)c(C(=O)O)n2)c1F [Compound 113, 4-Amino-3-chloro-6-(4-chloro-2-fluoro-3-methoxyethoxyphenyl)pyridine-2-carboxylic acid]
pest or weed control at 140 g/ha [4]: 0%
pest or weed control at 140 g/ha [5]: 55%
pest or weed control at 140 g/ha [6]: 0%

melting point: 180 to 181 °C
Structure (SMILES): COc1cc(-c2nc(C(=O)O)c(Cl)c(N)c2F)c(F)cc1Cl [Compound 122, 4-Amino-3-chloro-6-(4-chloro-2-fluoro-5-methoxyphenyl)-5-fluoropyridine-2-carboxylic acid]
pest or weed control at 140 g/ha [4]: 100%
pest or weed control at 140 g/ha [5]: 100%
pest or weed control at 140 g/ha [6]: 100%
